We go through 69 compounds from patent US10239843B2 (CANCER RESEARCH TECHNOLOGY LIMITED, priority 2014, dated 2019).

By IC50 is commonly meant the concentration at which inhibition is half-maximal.

In the assay the target is Human Full Length PARG (Homo sapiens (Human), UniProt Q86W56). Kind of assay: PARG enzyme assay (TR-FRET). To be noted: read-out: PARG Biochem IC50 Geomean. Type of assay: biochemical. (Time-resolved FRET reads energy transfer from a long-lived donor to a nearby acceptor.)
Human Full Length PARG, sequence (Q86W56 whole entry): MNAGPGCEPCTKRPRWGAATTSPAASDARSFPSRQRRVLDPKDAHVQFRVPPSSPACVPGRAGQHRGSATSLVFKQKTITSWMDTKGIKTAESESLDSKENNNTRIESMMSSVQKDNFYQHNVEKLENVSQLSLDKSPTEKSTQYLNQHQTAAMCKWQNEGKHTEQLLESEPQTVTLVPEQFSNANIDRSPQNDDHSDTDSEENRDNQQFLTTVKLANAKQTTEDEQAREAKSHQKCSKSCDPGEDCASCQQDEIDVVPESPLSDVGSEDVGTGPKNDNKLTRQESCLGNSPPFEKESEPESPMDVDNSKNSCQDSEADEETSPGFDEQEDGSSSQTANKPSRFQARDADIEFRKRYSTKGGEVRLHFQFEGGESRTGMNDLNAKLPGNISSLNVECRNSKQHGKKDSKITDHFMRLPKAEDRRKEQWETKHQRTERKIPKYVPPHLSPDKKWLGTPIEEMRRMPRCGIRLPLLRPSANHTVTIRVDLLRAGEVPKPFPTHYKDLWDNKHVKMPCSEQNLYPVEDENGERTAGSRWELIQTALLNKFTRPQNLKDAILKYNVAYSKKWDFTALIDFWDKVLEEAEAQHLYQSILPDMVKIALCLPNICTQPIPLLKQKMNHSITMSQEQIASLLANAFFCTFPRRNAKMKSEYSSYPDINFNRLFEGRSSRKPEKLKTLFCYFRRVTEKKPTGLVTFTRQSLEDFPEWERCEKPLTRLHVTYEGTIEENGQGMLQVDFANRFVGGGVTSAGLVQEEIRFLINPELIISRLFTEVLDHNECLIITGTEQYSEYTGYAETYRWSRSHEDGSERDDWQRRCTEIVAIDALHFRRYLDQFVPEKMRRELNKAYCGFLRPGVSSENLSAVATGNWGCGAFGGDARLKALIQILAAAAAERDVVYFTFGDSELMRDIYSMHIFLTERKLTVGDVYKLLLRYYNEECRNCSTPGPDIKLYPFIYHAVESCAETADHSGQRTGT
For `Cn1c(=O)c2cc(S(=O)(=O)NC3(C)CC3)ccc2n(Cc2c(F)cccc2F)c1=O` [Eample 75], the half-maximal inhibitory concentration (IC50) is 0.714 µM.
`CC1(NS(=O)(=O)c2ccc3[nH]c(=O)[nH]c(=O)c3c2)CC1` [Example 1]: the half-inhibitory concentration (IC50) turned out to be 9.17 µM.
`Cn1c(=O)c2cc(S(=O)(=O)NC3(C)CC3)ccc2n(C)c1=O` [Example 2]: the 50% inhibitory concentration (IC50) amounted to 4.74 µM.
For the compound `Cn1c(=O)c2cc(S(=O)(=O)NC3(C#N)CC3)ccc2n(C)c1=O` [Example 3], the 50% inhibitory concentration (IC50) is 4.96 µM.
For the compound `CCn1c(=O)c2cc(S(=O)(=O)NC3(C)CC3)ccc2n(CC)c1=O` [Example 4], the IC50 came out at 1.47 µM.
With `CCn1c(=O)c2cc(S(=O)(=O)NC3(C#N)CC3)ccc2n(CC)c1=O` [Example 5], the IC50 came to 1.82 µM.
As to `CCn1c(=O)n(C)c(=O)c2cc(S(=O)(=O)NC3(C)CC3)ccc21` [Example 9], the IC50 came to 4.11 µM.
Consider `CCn1c(=O)c2cc(S(=O)(=O)NC3(C)CC3)ccc2n(CC2CCCCC2)c1=O` [Example 13], for which the concentration for half-maximal inhibition (IC50) turned out to be 3.1 µM.
Regarding `CCn1c(=O)c2cc(S(=O)(=O)NC3(C)CC3)ccc2n(CCOC)c1=O` [Example 17], the half-maximal inhibitory concentration (IC50) came out at 1.57 µM.
The same measure for `Cn1c(=O)n(CC2CC2)c(=O)c2cc(S(=O)(=O)NC3(C)CC3)ccc21` [Example 20]: 4.65 µM.
The result for `Cn1c(=O)c(=O)[nH]c2ccc(S(=O)(=O)NC3(C)CC3)cc21` [Example 21, 4-Methyl-N-(1-methylcyclopropyl)-2,3-dioxo-1H-quinoxaline-6-sulfonamide] reads 6.93 µM.
The result for `Cn1c(=O)n(Cc2cccnc2)c(=O)c2cc(S(=O)(=O)NC3(C)CC3)ccc21` [Example 30] reads 2.55 µM; that for `Cn1c(=O)n(CC#N)c(=O)c2cc(S(=O)(=O)NC3(C)CC3)ccc21` [Example 31], 1.14 µM; that for `Cn1c(=O)c2cc(S(=O)(=O)NC3(C)CC3)ccc2n(CC2CCOC2)c1=O` (stereo not drawn) [Example 37], 1.48 µM.
For `Cn1c(=O)c2cc(S(=O)(=O)NC3(C)CC3)ccc2n(CC2CCCCO2)c1=O` (stereo not drawn) [Example 38], the IC50 came out at 1.55 µM.
Consider `Cn1c(=O)c(=O)n(Cc2ccccc2)c2ccc(S(=O)(=O)NC3(C)CC3)cc21` [Example 40, 1-Benzyl-4-methyl-N-(1-methylcyclopropyl)-2,3-dioxo-quinoxaline-6-sulfonamide], for which the concentration for half-maximal inhibition (IC50) stood at 2.79 µM.
The result for `Cn1c(=O)c2cc(S(=O)(=O)NC3(C)CC3)ccc2n(CC2(C)COC2)c1=O` [Example 42] reads 2.45 µM.
As for `Cn1c(=O)c2cc(S(=O)(=O)NC3(C)CC3)ccc2n(CCC2CC2)c1=O` [Example 43], the IC50 was 1.17 µM.
Turning to `C#CCn1c(=O)c2cc(S(=O)(=O)NC3(C)CC3)ccc2n(C)c1=O` [Example 47], the IC50 was 2.97 µM.
On to `Cn1ccnc1Cn1c(=O)n(C)c(=O)c2cc(S(=O)(=O)NC3(C)CC3)ccc21` [Example 48], for which the IC50 was determined as 0.75 µM.
The same measure for `Cn1c(=O)c2cc(S(=O)(=O)NC3(C)CC3)ccc2n(CC2CCCO2)c1=O` (stereo not drawn) [Example 49]: 2.42 µM; for `Cn1c(=O)n(CC2CC2(F)F)c(=O)c2cc(S(=O)(=O)NC3(C)CC3)ccc21` (stereo not drawn) [Example 50]: 3.41 µM; for `Cc1nc2ccc(S(=O)(=O)NC3(C)CC3)cc2c(=O)n1C` [Example 51]: 4.16 µM.
The result for `Cc1nc2ccc(S(=O)(=O)NC3(C)CC3)cc2c(=O)[nH]1` [Example 52] reads 6.96 µM.
Take `Cn1c(=O)n(Cc2ccncc2)c(=O)c2cc(S(=O)(=O)NC3(C)CC3)ccc21` [Example 53]: the half-maximal inhibitory concentration (IC50) is 7.98 µM.
`CC1(NS(=O)(=O)c2ccc3nc(C4CC4)[nH]c(=O)c3c2)CC1` [Example 54]: the IC50 was 2.42 µM.
With `Cc1ccccc1Cn1c(=O)n(C)c(=O)c2cc(S(=O)(=O)NC3(C)CC3)ccc21` [Example 56], the concentration for half-maximal inhibition (IC50) came out at 3.34 µM.
The same measure for `Cc1cccc(Cn2c(=O)n(C)c(=O)c3cc(S(=O)(=O)NC4(C)CC4)ccc32)c1` [Example 57]: 1.11 µM; for `Cc1ccc(Cn2c(=O)n(C)c(=O)c3cc(S(=O)(=O)NC4(C)CC4)ccc32)cc1` [Example 58]: 1.57 µM; for `COc1ccccc1Cn1c(=O)n(C)c(=O)c2cc(S(=O)(=O)NC3(C)CC3)ccc21` [Example 59]: 3.24 µM.
The result for `Cn1c(=O)c2cc(S(=O)(=O)NC3(C)CC3)ccc2n(Cc2ccccc2Cl)c1=O` [Example 62] reads 1.27 µM.
Take `Cn1c(=O)c2cc(S(=O)(=O)NC3(C)CC3)ccc2n(Cc2ccccc2F)c1=O` [Example 65]: the IC50 was 1.45 µM.
The result for `Cn1c(=O)c2cc(S(=O)(=O)NC3(C)CC3)ccc2n(Cc2cccc(C#N)c2)c1=O` [Example 69] reads 1.14 µM.
The same measure for `Cn1c(=O)c2cc(S(=O)(=O)NC3(C)CC3)ccc2n(Cc2ccccc2C(F)(F)F)c1=O` [Example 71]: 2.39 µM.
The same measure for `Cn1c(=O)c2cc(S(=O)(=O)NC3(C)CC3)ccc2n(Cc2c(Cl)cccc2Cl)c1=O` [Example 74]: 2.1 µM.
With `Cc1cc(C)cc(Cn2c(=O)n(C)c(=O)c3cc(S(=O)(=O)NC4(C)CC4)ccc32)c1` [Example 77], the IC50 is 1.68 µM.
Consider `COc1cc(Cn2c(=O)n(C)c(=O)c3cc(S(=O)(=O)NC4(C)CC4)ccc32)cc(OC)c1` [Example 78], for which the IC50 is 0.621 µM.
In the case of `CC(C)Cc1nc2ccc(S(=O)(=O)NC3(C)CC3)cc2c(=O)n1C` [Example 81], the concentration for half-maximal inhibition (IC50) was found to be 1.84 µM.
For the compound `Cn1c(=O)c2cc(S(=O)(=O)NC3(C)CC3)ccc2n(Cc2ccccn2)c1=O` [Example 82], the concentration for half-maximal inhibition (IC50) was found to be 5.77 µM.
For the compound `Cn1c(=O)c2cc(S(=O)(=O)NC3(C)CC3)ccc2n(Cc2cccnc2)c1=O` [Example 83], the IC50 was 1.33 µM.
Regarding `Cn1c(=O)c2cc(S(=O)(=O)NC3(C)CC3)ccc2n(Cc2ccncc2)c1=O` [Example 84], the concentration for half-maximal inhibition (IC50) came out at 2.37 µM.
The same measure for `Cn1c(=O)n(CC(=O)Nc2ccccc2)c(=O)c2cc(S(=O)(=O)NC3(C)CC3)ccc21` [Example 85]: 2.25 µM; for `Cn1c(=O)n(CC(=O)N2CCC[C@H]2C(N)=O)c(=O)c2cc(S(=O)(=O)NC3(C)CC3)ccc21` [Example 86]: 5.47 µM; for `Cn1c(=O)n(Cc2ccc(C(N)=O)cc2)c(=O)c2cc(S(=O)(=O)NC3(C)CC3)ccc21` [Example 89]: 5.89 µM.
For the compound `Cn1c(=O)c2cc(S(=O)(=O)NC3(C)CC3)ccc2n(CC(=O)Nc2ccccc2)c1=O` [Example 92], the IC50 came out at 4.13 µM.
With `Cn1c(=O)c2cc(S(=O)(=O)NC3(C)CC3)ccc2n(Cc2noc(C(N)=O)n2)c1=O` [Example 95], the 50% inhibitory concentration (IC50) was determined as 0.758 µM.
Turning to `Cn1c(-c2ccccc2)nc2ccc(S(=O)(=O)NC3(C)CC3)cc2c1=O` [Example 97], the IC50 came to 2.19 µM.
As to `Cn1c(=O)c2cc(S(=O)(=O)NC3(C)CC3)ccc2n(Cc2ccc(C#N)c(F)c2)c1=O` [Example 100], the concentration for half-maximal inhibition (IC50) amounted to 1.28 µM.
With `Cc1cc(Cn2c(=O)c3cc(S(=O)(=O)NC4(C)CC4)ccc3n(C)c2=O)no1` [Example 103], the 50% inhibitory concentration (IC50) was found to be 5.19 µM.
The result for `Cc1cc(Cn2c(=O)n(C)c(=O)c3cc(S(=O)(=O)NC4(C)CC4)ccc32)no1` [Example 105] reads 1.43 µM; that for `Cn1cc(NC(=O)Cn2c(=O)n(C)c(=O)c3cc(S(=O)(=O)NC4(C)CC4)ccc32)cn1` [Example 106], 3.88 µM; that for `Cn1c(=O)c2cc(S(=O)(=O)NC3(C)CC3)ccc2n(CC(=O)c2ccc(O)cc2)c1=O` [Example 107], 8.94 µM.
The same measure for `Cn1c(=O)n(Cc2cnccn2)c(=O)c2cc(S(=O)(=O)NC3(C)CC3)ccc21` [Example 108]: 7.8 µM; for `CCN(CC)c1ccc(C(=O)Cn2c(=O)c3cc(S(=O)(=O)NC4(C)CC4)ccc3n(C)c2=O)cc1` [Example 110]: 6.7 µM.
The same measure for `Cn1c(=O)n(Cc2nc3ccccc3[nH]2)c(=O)c2cc(S(=O)(=O)NC3(C)CC3)ccc21` [Example 112]: 5.71 µM; for `Cn1ccnc1Cn1c(=O)c2cc(S(=O)(=O)NC3(C)CC3)ccc2n(C)c1=O` [Example 113]: 7.35 µM; for `Cn1c(=O)n(CC(=O)c2ccc(N3CCCC3)cc2)c(=O)c2cc(S(=O)(=O)NC3(C)CC3)ccc21` [Example 114]: 1.51 µM.
Take `Cn1c(=O)c2cc(S(=O)(=O)NC3(C)CC3)ccc2n(Cc2nc3ccccc3[nH]2)c1=O` [Example 116]: the concentration for half-maximal inhibition (IC50) stood at 1.05 µM.
In the case of `Cn1c(=O)c2cc(S(=O)(=O)NC3(C)CC3)ccc2n(CC(=O)c2ccc(N3CCCC3)cc2)c1=O` [Example 117], the concentration for half-maximal inhibition (IC50) turned out to be 4.81 µM.
The same measure for `Cn1c(=O)c2cc(S(=O)(=O)NC3(C)CC3)ccc2n(Cc2noc(C(C)(C)C)n2)c1=O` [Example 119]: 1.42 µM.
The same measure for `Cc1noc(C)c1Cn1c(=O)n(C)c(=O)c2cc(S(=O)(=O)NC3(C)CC3)ccc21` [Example 121]: 2.54 µM; for `Cc1cc(Cn2c(=O)c3cc(S(=O)(=O)NC4(C)CC4)ccc3n(C)c2=O)n(C)n1` [Example 123]: 2.42 µM.
On to `Cn1nccc1Cn1c(=O)n(C)c(=O)c2cc(S(=O)(=O)NC3(C)CC3)ccc21` [Example 125], for which the IC50 turned out to be 1.23 µM.
Regarding `CC1(NS(=O)(=O)c2ccc3c(c2)[nH]c(=O)c(=O)n3Cc2ccc(F)cc2)CC1` [Example 128, 1-[(4-Fluorophenyl)methyl]-N-(1-methylcyclopropyl)-2,3-dioxo-4H-quinoxaline-6-sulfonamide], the 50% inhibitory concentration (IC50) came out at 5.1 µM.
Regarding `Cn1c(=O)c(=O)n(Cc2ccc(F)cc2)c2ccc(S(=O)(=O)NC3(C)CC3)cc21` [Example 130, 1-[(4-Fluorophenyl)methyl]-4-methyl-N-(1-methylcyclopropyl)-2,3-dioxo-quinoxaline-6-sulfonamide], the half-maximal inhibitory concentration (IC50) worked out at 3.36 µM.
The same measure for `Cc1nc(-c2ccccc2)c(Cn2c(=O)n(C)c(=O)c3cc(S(=O)(=O)NC4(C)CC4)ccc32)s1` [Example 134]: 0.76 µM.
Regarding `CC#CCn1c(=O)n(C)c(=O)c2cc(S(=O)(=O)NC3(C)CC3)ccc21` [Example 136], the IC50 stood at 1.11 µM.
The same measure for `Cc1nc(C)c(Cn2c(=O)c3cc(S(=O)(=O)NC4(C)CC4)ccc3n(C)c2=O)s1` [Example 142]: 0.907 µM; for `Cn1c(=O)n(Cc2cnc(Cl)s2)c(=O)c2cc(S(=O)(=O)NC3(C)CC3)ccc21` [Example 144]: 1.6 µM.
